Measured values: patent US20040106545A1, “Compounds and methods for modulating cell adhesion” (priority 1996, published 2004)
pEC50: −log10 of the molar value.

Experiments:
[1] = tested on: 3T3 cells not expressing N-cadherin, N-CAM, or L1 (control cells); assay: Neurite outgrowth on control 3T3 monolayers (Example 2); assay type: cell-based, mouse; details: 500 μg/ml
Method: Neurons were cultured on monolayers of 3T3 cells transfected with cDNA encoding N-cadherin essentially as described by Doherty and Walsh, Curr. Op. Neurobiol. 4:49-55, 1994; Williams et al., Neuron 13:583-594, 1994; Hall et al., Cell Adhesion and Commun. 3:441-450, 1996; Doherty and Walsh, Mol. Cell. Neurosci. 8:99-111, 1994; Safell et al., Neuron 18:231-242, 1997. Briefly, monolayers of control 3T3 fibroblasts and 3T3 fibroblasts that express N-cadherin were established by overnight culture of 80,000 cells in individual wells of an 8-chamber well tissue culture slide. 3000 cerebellar neurons isolated from post-natal day 3 mouse brains were cultured for 18 hours on the various monolayers in control media (SATO/2%FCS), or media supplemented with various concentrations of the cyclic peptide N—Ac-CHAVC-NH2 (SEQ ID NO:10) or a control peptide without the HAV sequence (N—Ac-CHGVC-NH2; SEQ ID NO:11). The cultures were then fixed and stained for GAP43, which specifically binds to the neurons and their neurites. The length of the longest neurite on each GAP43 positive neuron was then measured by computer assisted morphometry.

N-CAM = molecular target: T1, N-CAM (Homo sapiens, UniProt P13591); assay: Neurite outgrowth on N-CAM expressing 3T3 monolayers (Example 2); assay type: cell-based, mouse; details: 500 μg/mL
T1 construct: expressed in transfected cells; host or cells: 3T3 fibroblasts (monolayer); mouse post-natal day 3 cerebellar neurons on top
T1 sequence (P13591 20-858, species assumed): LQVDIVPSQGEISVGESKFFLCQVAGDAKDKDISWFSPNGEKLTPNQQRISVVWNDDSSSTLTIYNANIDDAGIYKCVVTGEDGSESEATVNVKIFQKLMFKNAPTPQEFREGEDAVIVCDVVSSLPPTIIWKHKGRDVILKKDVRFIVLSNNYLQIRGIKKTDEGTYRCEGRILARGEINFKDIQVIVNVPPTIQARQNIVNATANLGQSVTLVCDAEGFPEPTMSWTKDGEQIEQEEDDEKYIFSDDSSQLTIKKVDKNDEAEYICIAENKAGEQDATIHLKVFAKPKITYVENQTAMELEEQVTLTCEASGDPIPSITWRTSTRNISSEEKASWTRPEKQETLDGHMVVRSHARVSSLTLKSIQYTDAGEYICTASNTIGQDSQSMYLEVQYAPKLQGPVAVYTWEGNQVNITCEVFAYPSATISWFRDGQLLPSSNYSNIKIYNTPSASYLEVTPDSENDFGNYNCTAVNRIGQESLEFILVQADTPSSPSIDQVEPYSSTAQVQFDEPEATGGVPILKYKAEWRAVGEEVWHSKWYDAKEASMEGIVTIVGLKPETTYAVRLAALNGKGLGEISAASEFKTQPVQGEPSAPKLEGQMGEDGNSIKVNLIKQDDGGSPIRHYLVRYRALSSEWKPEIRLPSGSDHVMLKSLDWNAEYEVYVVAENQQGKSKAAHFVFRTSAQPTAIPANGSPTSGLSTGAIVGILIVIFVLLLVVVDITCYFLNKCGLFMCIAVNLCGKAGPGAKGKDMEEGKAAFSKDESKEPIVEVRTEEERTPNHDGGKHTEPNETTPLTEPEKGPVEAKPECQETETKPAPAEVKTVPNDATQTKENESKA

Rat = assay: Acute toxicity study in rat; assay type: in vivo; details: intravenously, 100 mg/kg
SKOV3 tumors = assay: Human ovarian (SKOV3) tumors grown in nude mice: tumor volume and histology; assay type: in vivo, mouse
Method: SKOV3 cells (ATCC) were grown to 70% confluence in Minimum Essential Medium (Life Technologies, Grand Island, N.Y.) supplemented with 10% Fetal Bovine Serum (Wisent, St. Bruno, Quebec) in a humidified atmosphere containing 5% CO2. Cells were then dissociated with 0.02% PBS/EDTA. Total cell count and viable cell number was determined by trypan blue stain and a hemacytometer.
Approximately 1×10^7 cells were resuspended in 400 μl saline and injected in 6-week-old CD-1 nude mice (female, Charles River) subcutaneously. After 20 days of continuous tumor growth, tumor size was about 100 mm^3. The tumor-bearing animals were then injected intraperitoneally every day for 4 consecutive days with 20 mg/kg of the representative peptide modulating agent N—Ac-CHAVC-NH2 (SEQ ID NO:10) and saline, for experimental and control respectively. Mice were sacrificed by cervical dislocation 4 days after final injection.
Tumor tissue was dissected and fixed in PBS with 4% paraformaldehyde for 48 hours. Specimens were then dehydrated in a series of alcohol incubations, and embedded in paraffin wax. Tissues were sectioned, rehydrated and stained with hematoxylin/eosin for morphological purposes. Representative sections obtained from treated and untreated mice are shown in FIGS. 28B and 28A, respectively.
Within similar experiments, tumor-bearing nude mice as described above were injected intraperitoneally with 2 mg/kg of the representative peptide modulating agent N—Ac-CHAVC-NH2 (SEQ ID NO:10) and saline, for experimental and control respectively. Injections were performed every day for 4 days. Mice were sacrificed 24 hours after the last injection. Tumor tissue was fixed, sectioned and stained as described above. Representative sections obtained from treated and untreated mice are shown in FIGS. 30A and 30B, respectively.
In a similar study, the effect of N—Ac-CHAVC-NH2 (SEQ ID NO:10) on ovarian tumor growth was evaluated at 2 mg/kg and 0.2 mg/kg. Mice were treated as described above with saline alone, 2 mg/kg peptide or 0.2 mg/kg peptide once per day for 5 days. The percent change in tumor volume (relative to the tumor size at day 1) was determined.

[2] = tested on: Human saphenous vein vascular smooth muscle cells; assay: Vascular smooth muscle cell migration after scrape-wounding; assay type: cell-based; details: 1 mg/mL, 24 hours after wounding
Method: An illustrative assay for evaluating the modulating of vascular smooth muscle cell migration may be performed as follows (as described in Example 23). Human saphenous vein vascular smooth muscle cells are explanted from surplus segments of vein from patients undergoing coronary artery bypass surgery. Cells are maintained in Dulbecco's modified essential medium supplemented with penicillin, streptomycin, L-glutamine and 10% fetal calf serum and are grown to confluence on glass coverslips in the presence or absence of collagen type I. The cell layer is then subjected to scrape-wounding by drawing a fine cell scraper across the coverslip. Proliferation of the vascular smooth muscle cells is inhibited by addition of 2 mM hydroxyurea to the culture media. […] The migratory capacity of the vascular smooth muscle cells is assessed by measuring the distance of migration into the wound area (outermost 100 μm from the wound) using image analysis software at 24 hours after wounding.
Human saphenous vein vascular smooth muscle cells were explanted from surplus segments of vein from patients undergoing coronary artery bypass surgery. […] The migratory capacity of the vascular smooth muscle cells was assessed by measuring the distance of migration into the wound area (outermost 100 μm from the wound) using image analysis software at 24 hours after wounding.

[3] = tested on: Madin Darby canine kidney (MDCK) cells; assay type: cell-based; details: 18 h
L1 = L1 (Homo sapiens, UniProt P32004); assay: Neurite outgrowth on L1 expressing 3T3 monolayers (Example 2); assay type: cell-based, mouse; parameters: expressed in transfected cells; host or cells: 3T3 fibroblasts (monolayer); mouse post-natal day 3 cerebellar neurons on top; details: 500 μg/mL
L1, sequence (P32004 20-1257): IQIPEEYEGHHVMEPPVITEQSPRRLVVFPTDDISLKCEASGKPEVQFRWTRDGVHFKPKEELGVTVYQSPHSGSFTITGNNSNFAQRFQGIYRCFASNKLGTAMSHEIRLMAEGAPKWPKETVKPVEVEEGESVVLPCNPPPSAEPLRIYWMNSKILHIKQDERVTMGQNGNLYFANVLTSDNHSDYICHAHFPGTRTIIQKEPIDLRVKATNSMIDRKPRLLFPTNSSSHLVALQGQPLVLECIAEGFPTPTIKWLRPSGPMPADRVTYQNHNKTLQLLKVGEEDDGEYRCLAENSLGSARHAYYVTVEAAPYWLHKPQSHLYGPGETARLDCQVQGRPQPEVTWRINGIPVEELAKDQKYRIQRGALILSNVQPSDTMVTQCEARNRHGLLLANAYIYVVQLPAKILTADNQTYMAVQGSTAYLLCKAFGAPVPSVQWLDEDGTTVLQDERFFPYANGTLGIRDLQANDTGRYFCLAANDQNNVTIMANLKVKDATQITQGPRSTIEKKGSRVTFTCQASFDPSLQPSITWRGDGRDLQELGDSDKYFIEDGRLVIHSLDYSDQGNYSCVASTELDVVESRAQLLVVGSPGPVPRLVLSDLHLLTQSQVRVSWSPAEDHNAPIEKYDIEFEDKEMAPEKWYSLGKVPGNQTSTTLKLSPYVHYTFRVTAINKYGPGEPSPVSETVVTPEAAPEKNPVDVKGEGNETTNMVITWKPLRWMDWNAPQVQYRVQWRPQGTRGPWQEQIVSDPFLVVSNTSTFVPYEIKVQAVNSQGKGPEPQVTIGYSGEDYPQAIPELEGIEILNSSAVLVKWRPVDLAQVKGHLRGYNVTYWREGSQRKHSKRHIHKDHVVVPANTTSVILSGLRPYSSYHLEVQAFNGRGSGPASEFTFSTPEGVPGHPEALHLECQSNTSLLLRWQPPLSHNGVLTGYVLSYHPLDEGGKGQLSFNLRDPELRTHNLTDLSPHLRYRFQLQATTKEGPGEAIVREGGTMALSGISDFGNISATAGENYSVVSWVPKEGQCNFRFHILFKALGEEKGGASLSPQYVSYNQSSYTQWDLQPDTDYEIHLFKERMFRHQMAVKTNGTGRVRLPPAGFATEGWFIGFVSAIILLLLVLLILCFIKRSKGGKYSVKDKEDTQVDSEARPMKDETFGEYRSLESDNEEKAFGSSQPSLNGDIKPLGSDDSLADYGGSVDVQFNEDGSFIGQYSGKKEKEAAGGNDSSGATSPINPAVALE

## CC(=O)N[C@H]1CSSC[C@@H](C(N)=O)NC(=O)[C@H](C(C)C)NC(=O)[C@H](C)NC(=O)[C@H](Cc2c[nH]cn2)NC1=O [N—Ac—CHAVC—NH2, N-Ac-Cys-His-Ala-Val-Cys-NH2]
[1]
  inhibition of neurite outgrowth on control 3T3 cells: did not inhibit neurite outgrowth
N-CAM
  inhibition of neurite outgrowth on 3T3 cells expressing N-CAM: did not inhibit neurite outgrowth
Rat
  gross or histopathological findings: no gross or histopathological findings related to the treatment
SKOV3 tumors; 0.2 mg/kg once per day for 5 days
  change in tumor volume: grew at a slower rate than tumors treated with saline
SKOV3 tumors; 2 mg/kg intraperitoneally every day for 4 days, Von Willebrand Factor VIII stain
  effect on tumor blood vessels and tumor growth: capable of damaging tumor blood vessels and stopping tumor growth in vivo
SKOV3 tumors; 2 mg/kg once per day for 5 days
  change in tumor volume: slight reduction in volume over the five day study
SKOV3 tumors; 20 mg/kg intraperitoneally every day for 4 consecutive days
  tumor growth / tumor size: prevents detectable tumor growth and results in a substantial decrease in tumor size
[2]; collagen
  reduction of vascular smooth muscle cell migration: 56±5%
[2]; glass
  reduction of vascular smooth muscle cell migration: 53±8%
[3]
  pEC50: 3.57
L1
  inhibition of neurite outgrowth on 3T3 cells expressing L1: did not inhibit neurite outgrowth
